The numbers were not newly measured in patent US5476644A, “Cyclic triamine chelating agents” (Sterling Winthrop Inc., priority 1994, dated 1995), which cites them from elsewhere.

Molecules are shown by their SMILES.

For this series the following is noted: background statement; cited from earlier work.

As for `[Gd]` [free form of Gd, gadolinium], the “toxicity of the free form” value is on record as “quite toxic”.
